The text below walks through data of patent publication US11186577B2, “Vasopressin receptor antagonists and products and methods related thereto” (BlackThorn Therapeutics, Inc., priority 2017, dated 2021).

Holding throughout (format): cell-based
Assay [1] concerns the target human Arginine Vasopressin Receptor 1a (AVPR1a) (Homo sapiens (Human), UniProt P37288). In words: Vasopressin V1A receptor antagonist assay (AVP-evoked calcium, FLIPR, CHO-AVPR1a cells). The procedure, abridged: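 CHO cells expressing human AVPR1a, Calcium-6 dye loaded 60-90 min, preincubated with compound 15 min at 37° C., then challenged with AVP at its daily-determined EC80. FLIPR fluorescence; 10-point 1:3 series from 3 μM, duplicates.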

The target in assay [2] is human Arginine Vasopressin Receptor 1b (AVPR1b) (Homo sapiens (Human), UniProt P47901). Nature of the assay: Vasopressin V1B receptor antagonist assay (AVP-evoked calcium, FLIPR, CHO-AVPR1b cells). On the procedure: The purpose of the assay is to determine the inhibitory effect of synthesized compounds on the Vasopressin V1b receptor. The assay was performed in Chinese Hamster Ovary (CHO) cells expressing the human Arginine Vasopressin Receptor 1b (AVPR1b). Arginine Vasopressin (AVP) evokes an increase in intracellular calcium in CHO-AVPR1b cells which is measured in a fluorescence assay on the FLIPR^TETRA using calcium sensitive dyes. Test compounds were assessed for their ability to affect the magnitude of the response to AVP, with antagonists showing a concentration-dependent reduction in the AVP-mediated fluorescence.
CHO-AVPR1b cells were maintained in routine culture in T175 Flasks at 37° C., 5% CO2. The growth medium consisted of Ham's F12 media supplemented with 10% v/v fetal bovine serum, 1× non-essential amino acids, and 0.4 mg/ml Geneticin G418.
Cells were harvested from T175 flasks when they were 80-90% confluent by first washing the cell monolayer with PBS and then dissociated using trypsin 0.05%/EDTA (3 mL for a T175 Flask). The flasks were incubated at room temperature until the cells detached. To the cell suspension, 10 ml of growth media was added and the cell density determined using the Vi-Cell automated cell counter. The cells were spun at 1000 rpm for 3 minutes, then the supernatant was carefully removed and discarded. The cell pellet was re-suspended at 6.0e^5 cells/ml in growth media. 25 μL of cells in growth media was dispensed into each well (15,000 cells per well) of a poly-D-lysine coated black, clear bottomed, 384-well plate. The plates were incubated at 37° C., 5% CO2 overnight.
At the start of each assay day, the potency of AVP is assessed and an EC80 concentration determined for subsequent compound profiling. Assays were performed using a two-step addition protocol on the FLIPR^TETRA; first addition of 5 μl of control or test compound at 10× final in assay buffer with 15 min incubation at 37° C., 5% CO2 followed by 10 μl of AVP at 6× final concentration in assay buffer. Changes in fluorescence were monitored for 3 min after both additions on the FLIPR^TETRA using 470-495 nm excitation and 515-575 nm emission wavelengths. The assay buffer consisted of HBSS (+Ca/+Mg) supplemented with 20 mM HEPES, and for the preparation of the AVP agonist only, 0.1% w/v bovine serum albumin. The assay was initiated by the removal of growth media from the cells and replacement with 45 μl of Calcium-6 dye (Molecular Devices) prepared at 1× in assay buffer. Cells were loaded with dye for 60-90 min at 37° C., 5% CO2 before initiation of the FLIPR^TETRA protocol. […] For compound profiling, test compounds were first serially diluted in DMSO (10-point curve, 1:3 dilutions) then diluted 33.3-fold in assay buffer prior to addition to the dye loaded cells on the FLIPR^TETRA. At the end of the incubation period 10 μl of AVP in assay buffer containing 0.1% BSA was added at the previously determined EC80 concentration.
In-plate controls for the assay include a Nelivaptan concentration-response curve as the reference V1b antagonist and an AVP concentration-response curve to confirm the reproducibility of the EC80 used for the compound challenge.

For assay [3], the target named is human Oxytocin Receptor (hOTR) (Homo sapiens (Human), UniProt P30559). In words: Oxytocin receptor antagonist assay (oxytocin-evoked calcium, FLIPR, CHEM-1-hOTR cells). The settings on record: read-out: OT IC50. On the procedure: This assay was performed in CHEM-1 cells expressing the human Oxytocin Receptor (hOTR) to determine the inhibitory effect of the compounds of the invention on the human Oxytocin receptor. Oxytocin evokes an increase in intracellular calcium in CHEM-1-hOTR cells which is measured in a fluorescence assay on the FLIPR^TETRA using calcium sensitive dyes. Test compounds were assessed for their ability to affect the magnitude of the response to oxytocin, with antagonists showing a concentration-dependent reduction in the oxytocin-mediated fluorescence.
CHEM-1-hOTR ready was used to assay frozen cells (Eurofins #HTS090RTA) which are supplied with a proprietary Media Component.
Cells were thawed in a 37° C. water bath and diluted with the supplied Media Component to a final volume of 10 ml. The cell suspension was centrifuged at 1000 rpm for 3 min at room temperature and the supernatant was discarded. The cell pellet was resuspended in Media Component (10.5 ml) and the cells (25 μL) were dispensed into a poly-D-lysine coated black, clear bottomed, 384-well plate. The plates were incubated overnight at 37° C., 5% CO2.
At the start of each assay day the potency of oxytocin was assessed and an EC80 concentration was determined for subsequent compound profiling. Assays were performed using a two-step addition protocol on the FLIPR^TETRA; first addition of 5 μl of control or test compound at 10× final in assay buffer with 15 min incubation at 37° C., 5% CO2 followed by 10 μl of oxytocin at 6× final concentration in assay buffer. Changes in fluorescence were monitored for 3 min after both additions on the FLIPR^TETRA using 470-495 nm excitation and 515-575 nm emission wavelengths. The assay buffer consisted of HBSS (+Ca/+Mg) supplemented with 20 mM HEPES, and for the preparation of the oxytocin agonist only, 0.1% w/v bovine serum albumin. The assay was initiated by the removal of growth media from the cells and replaced with 45 μl of Calcium-6 dye (Molecular Devices) prepared at 1× in assay buffer. Cells were loaded with dye for 60-90 min at 37° C., 5% CO2 before initiation of the FLIPR^TETRA protocol. […] For compound profiling, test compounds were first serially diluted in DMSO (10-point curve, 1:3 dilutions) then diluted 33.3-fold in assay buffer prior to addition to the dye loaded cells on the FLIPR^TETRA. At the end of the incubation period 10 μl of oxytocin in assay buffer containing 0.1% BSA was added at the previously determined EC80 concentration.
In-plate controls for the assay include a L-368,899 concentration-response curve as the reference OTR antagonist and an oxytocin concentration-response curve to confirm the reproducibility of the EC80 used for the compound challenge.

Like-named read-outs stand apart in the source and are kept apart here.

As usually defined, the IC50 is the concentration needed to halve the response being measured.

Sequence of human Oxytocin Receptor (hOTR) (P30559 whole entry): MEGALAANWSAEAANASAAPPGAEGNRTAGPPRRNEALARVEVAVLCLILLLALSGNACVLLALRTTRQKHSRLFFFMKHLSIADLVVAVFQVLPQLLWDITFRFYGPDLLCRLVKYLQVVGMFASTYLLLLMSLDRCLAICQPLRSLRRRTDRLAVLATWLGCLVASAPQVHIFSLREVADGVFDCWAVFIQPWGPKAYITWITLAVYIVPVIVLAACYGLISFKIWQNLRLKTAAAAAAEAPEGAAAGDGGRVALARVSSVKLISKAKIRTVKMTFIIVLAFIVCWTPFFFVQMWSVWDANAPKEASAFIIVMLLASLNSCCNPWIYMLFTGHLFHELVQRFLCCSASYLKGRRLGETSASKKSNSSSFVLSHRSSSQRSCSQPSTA
Sequence of human Arginine Vasopressin Receptor 1b (AVPR1b) (P47901 whole entry): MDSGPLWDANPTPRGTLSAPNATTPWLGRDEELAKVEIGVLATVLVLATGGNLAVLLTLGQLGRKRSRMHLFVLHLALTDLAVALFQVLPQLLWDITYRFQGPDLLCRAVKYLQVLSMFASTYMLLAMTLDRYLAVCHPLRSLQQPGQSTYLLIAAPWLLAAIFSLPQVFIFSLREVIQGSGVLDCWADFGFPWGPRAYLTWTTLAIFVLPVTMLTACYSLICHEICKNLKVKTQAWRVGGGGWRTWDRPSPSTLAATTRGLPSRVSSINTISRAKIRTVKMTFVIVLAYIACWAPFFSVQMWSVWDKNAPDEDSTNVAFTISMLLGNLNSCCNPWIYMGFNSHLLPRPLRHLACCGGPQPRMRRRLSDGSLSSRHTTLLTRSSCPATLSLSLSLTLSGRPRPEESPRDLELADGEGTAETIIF
Sequence of human Arginine Vasopressin Receptor 1a (AVPR1a) (P37288 whole entry): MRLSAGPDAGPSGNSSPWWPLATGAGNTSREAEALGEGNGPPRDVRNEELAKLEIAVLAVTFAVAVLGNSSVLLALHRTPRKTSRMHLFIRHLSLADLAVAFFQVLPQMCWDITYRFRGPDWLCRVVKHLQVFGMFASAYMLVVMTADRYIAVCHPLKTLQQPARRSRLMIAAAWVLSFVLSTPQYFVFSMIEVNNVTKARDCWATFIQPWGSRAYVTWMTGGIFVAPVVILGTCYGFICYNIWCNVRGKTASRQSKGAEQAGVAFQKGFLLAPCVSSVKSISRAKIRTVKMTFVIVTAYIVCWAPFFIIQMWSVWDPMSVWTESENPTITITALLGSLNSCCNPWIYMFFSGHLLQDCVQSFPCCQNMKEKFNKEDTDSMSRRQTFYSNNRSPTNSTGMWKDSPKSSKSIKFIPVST

In the case of `CC(C)OC(=O)N1Cc2cc(Cl)ccc2-n2c(C3CC4(C3)CN(c3cccc(C#N)n3)C4)nnc2C1C` (single isomer, unassigned) [Cpd 204A], the IC50 in assay [1] (read-out: V1a IC50) was below 100 nM; in assay [2] it was above 1000 nM; in assay [3], 100 to 500 nM.

`CC(C)OC(=O)N1Cc2cc(Cl)ccc2-n2c(C3CC4(C3)CN(c3cccc(C#N)n3)C4)nnc2C1C` (single isomer, unassigned) [Cpd 204B]: the 50% inhibitory concentration (IC50) in assay [1] (read-out: V1a IC50) is 100 to 500 nM; in assay [2], above 1000 nM; in assay [3], above 1000 nM.

On to `CC1c2nnc(C3CC4(C3)CN(c3ncccn3)C4)n2-c2ccc(Cl)cc2CN1C(=O)OC1(C)CC1` (single isomer, unassigned) [Cpd 205A], for which the IC50 in assay [1] (read-out: V1a IC50) was below 100 nM; in assay [2] it was above 1000 nM; in assay [3], 500 to 1000 nM.

Turning to `CC1c2nnc(C3CC4(C3)CN(c3ncccn3)C4)n2-c2ccc(Cl)cc2CN1C(=O)OC1(C)CC1` (single isomer, unassigned) [Cpd 205B], the IC50 in assay [1] (read-out: V1a IC50), in assay [2] and in assay [3] was above 1000 nM throughout.

As for `CC1c2nnc(C3CC4(C3)CN(c3ccc(F)cn3)C4)n2-c2ccc(Cl)cc2CN1C(=O)OC(C)(C)CF` (single isomer, unassigned) [Cpd 206A], the IC50 in assay [1] (read-out: V1a IC50) was below 100 nM; in assay [2], above 1000 nM; in assay [3], 100 to 500 nM.

Turning to `CC1c2nnc(C3CC4(C3)CN(c3ccc(F)cn3)C4)n2-c2ccc(Cl)cc2CN1C(=O)OC(C)(C)CF` (single isomer, unassigned) [Cpd 206B], the IC50 in assay [1] (read-out: V1a IC50) is 100 to 500 nM; in assay [2] it was above 1000 nM; in assay [3], above 1000 nM.

On to `Cc1ccc(N2CC3(CC(c4nnc5n4-c4ccc(Cl)cc4CN(C)C5)C3)C2)nc1` [compound 12], for which the figures for the concentration for half-maximal inhibition (IC50) in assay [1] and in assay [3] were 100 to 500 nM and above 1000 nM, respectively.

With `CN1Cc2cc(Cl)ccc2-n2c(nnc2C2CC3(C2)CN(c2cccnn2)C3)C1` [compound 13], the IC50 in assay [1] is 100 to 500 nM; in assay [3], above 1000 nM.

As for `CN1Cc2cc(Cl)ccc2-n2c(nnc2C2CC3(C2)CN(C(=O)C2COC2)C3)C1` [compound 14], the IC50 in assay [1] (read-out: V1a IC50) and in assay [3] was above 1000 nM in each case.

With `CC(=O)N1CC2(CC(c3nnc4n3-c3ccc(Cl)cc3CN(C)C4)C2)C1` [compound 15], the IC50 in assay [1] (read-out: V1a IC50) and in assay [3] was above 1000 nM throughout.

`CCC(=O)N1Cc2cc(Cl)ccc2-n2c(nnc2C2CC3(C2)CN(C(=O)C2CCC2)C3)C1` [compound 37]: the 50% inhibitory concentration (IC50) is below 100 nM in assay [1] (read-out: V1a IC50) and above 1000 nM in assay [3].

With `CCOC(=O)N1Cc2cc(Cl)ccc2-n2c(nnc2C2CC3(C2)CN(c2ccccn2)C3)C1` [compound 68], the IC50 in assay [1] (read-out: V1a IC50) was below 100 nM; in assay [3] it was above 1000 nM.

Turning to `CCC(=O)N1Cc2cc(Cl)ccc2-n2c(nnc2C2CC3(C2)CN(c2cccnn2)C3)C1` [compound 108], the IC50 was below 100 nM in assay [1] (read-out: V1a IC50) and above 1000 nM in assay [3].

On to `CCC(=O)N1Cc2cc(Cl)ccc2-n2c(nnc2C2CC3(C2)CN(c2cccc(C)n2)C3)C1` [compound 109], for which the concentration for half-maximal inhibition (IC50) in assay [1] (read-out: V1a IC50) was below 100 nM; in assay [3], above 1000 nM.

On to `CCC(=O)N1Cc2cc(Cl)ccc2-n2c(nnc2C2CC3(C2)CN(c2ccc(F)nn2)C3)C1` [compound 112], for which the half-inhibitory concentration (IC50) is below 100 nM in assay [1] (read-out: V1a IC50) and above 1000 nM in assay [3].

On to `O=C(C(F)F)N1Cc2cc(Cl)ccc2-n2c(nnc2C2CC3(C2)CN(C(=O)C2CC2)C3)C1` [compound 138], for which the figures for the 50% inhibitory concentration (IC50) in assay [1] (read-out: V1a IC50) and in assay [3] were below 100 nM and above 1000 nM, respectively.

For the molecule `CCC(=O)N1Cc2cc(Cl)ccc2-n2c(nnc2C2CC3(C2)CN(c2ncc(F)cn2)C3)C1` [compound 157], the IC50 in assay [1] (read-out: V1a IC50) is below 100 nM; in assay [3] it was above 1000 nM.

As for `COC(=O)N1Cc2cc(Cl)ccc2-n2c(C3CC4(C3)CN(c3ncncc3F)C4)nnc2C1C` (stereo not drawn) [compound 183], the half-inhibitory concentration (IC50) in assay [1] and in assay [3] was 100 to 500 nM in each case.

Consider `COC(=O)N1Cc2cc(Cl)ccc2-n2c(C3CC4(C3)CN(c3ncncc3F)C4)nnc2C1C` (stereo not drawn) [compound 188], for which the half-inhibitory concentration (IC50) in assay [1] (read-out: V1a IC50) was below 100 nM; in assay [3] it was 100 to 500 nM.

`CCOC(=O)N1Cc2cc(Cl)ccc2-n2c(C3CC4(C3)CN(c3nccc(C(F)F)n3)C4)nnc2C1C` (stereo not drawn) [compound 189]: the IC50 in assay [1] (read-out: V1a IC50) is below 100 nM; in assay [3], above 1000 nM.

Take `CC1c2nnc(C3CC4(C3)CN(c3ccc(F)cn3)C4)n2-c2ccc(Cl)cc2CN1C(=O)OC1CC1` (stereo not drawn) [compound 191, cyclopropyl 8-chloro-1-(2-(5-fluoropyridin-2-yl)-2-azaspiro[3.3]heptan-6-yl)-4-methyl-4H-benzo[f][1,2,4]triazolo[4,3-a][1,4]diazepine-5(6H)-carboxylate]: the values for the IC50 in assay [1] (read-out: V1a IC50) and in assay [3] were below 100 nM and 500 to 1000 nM, respectively.

On to `CC1c2nnc(C3CC4(C3)CN(c3ncccn3)C4)n2-c2ccc(Cl)cc2CN1C(=O)OC(C)(C)CF` (stereo not drawn) [compound 196], for which the half-inhibitory concentration (IC50) was below 100 nM in assay [1] (read-out: V1a IC50), above 1000 nM in assay [2] and above 1000 nM in assay [3].

Consider `COC(=O)N1Cc2cc(Cl)ccc2-n2c(C3CC4(C3)CN(c3ncccn3)C4)nnc2C12CC2` [compound 199], for which the half-inhibitory concentration (IC50) in assay [1] (read-out: V1a IC50) is below 100 nM; in assay [2] it was above 1000 nM; in assay [3] it was above 1000 nM.
